From ChEMBL document CHEMBL5038612, “Discovery of a 2,4-diphenyl-5,6-dihydrobenzo(h)quinolin-8-amine derivative as a novel DNA intercalating topoisomerase IIα poison” (Eur J Med Chem, 2021)
Counter-ions that a name gives are not always drawn. Active and inactive are the calls of the source. No cut-off for these calls is given here.

Tests used:
HeLa = test: Antiproliferative activity against human HeLa cells assessed as reduction in cell viability after 48 hrs by Ez-cytoX based microplate reader method; format: functional
HCT-15 = test: Antiproliferative activity against human HCT-15 cells assessed as reduction in cell viability after 48 hrs by Ez-cytoX based microplate reader method; format: functional; settings: HCT-15, 48 h
[1] = molecular target: T1, DNA topoisomerase 2-alpha (Homo sapiens, UniProt P11388); test: Inhibition of human topoisomerase 2 alpha mediated supercoiled pBR322 DNA relaxation at 100 uM by ethidium bromide staining based agarose gel electrophoresis relative to control
[2] = molecular target: DNA topoisomerase 2-beta (Homo sapiens) (UniProt Q02880); test: Inhibition of human topoisomerase 2 beta mediated supercoiled pBR322 DNA relaxation at 5 uM by ethidium bromide staining based agarose gel electrophoresis relative to control
[3] = molecular target: DNA topoisomerase 2-beta (Homo sapiens) (UniProt Q02880); test: Inhibition of human topoisomerase 2 beta mediated supercoiled pBR322 DNA relaxation at 2 uM by ethidium bromide staining based agarose gel electrophoresis relative to control
[4] = molecular target: T1, DNA topoisomerase 2-alpha; test: Inhibition of human topoisomerase 2 alpha mediated supercoiled pBR322 DNA relaxation at 2 uM by ethidium bromide staining based agarose gel electrophoresis relative to control
[5] = molecular target: DNA topoisomerase 2-beta (Homo sapiens) (UniProt Q02880); test: Inhibition of human topoisomerase 2 beta mediated supercoiled pBR322 DNA relaxation at 100 uM by ethidium bromide staining based agarose gel electrophoresis relative to control
Calf thymus DNA [6] = test: Binding affinity to calf thymus DNA assessed as DNA intercalation at 100 uM by fluorescence based EtBr-displacement assay relative to control; format: nucleic-acid assay; settings: Bos taurus
LNCaP = test: Antiproliferative activity against human LNCaP-LN3 cells assessed as reduction in cell viability after 48 hrs by Ez-cytoX based microplate reader method; format: functional
[7] = molecular target: T1, DNA topoisomerase 2-alpha; test: Inhibition of human topoisomerase 2 alpha mediated supercoiled pBR322 DNA relaxation at 1 uM by ethidium bromide staining based agarose gel electrophoresis relative to control
DU-145 = test: Antiproliferative activity against human DU-145 cells assessed as reduction in cell viability after 48 hrs by Ez-cytoX based microplate reader method; format: functional; settings: DU-145, 48 h
[8] = molecular target: T1, DNA topoisomerase 2-alpha; test: Inhibition of human topoisomerase 2 alpha mediated supercoiled pBR322 DNA relaxation at 5 uM by ethidium bromide staining based agarose gel electrophoresis relative to control
SK-OV-3 = test: Antiproliferative activity against human SK-OV-3 cells assessed as reduction in cell viability after 48 hrs by Ez-cytoX based microplate reader method; format: functional; settings: SK-OV-3, 48 h
BT-474 = test: Antiproliferative activity against human BT-474 cells assessed as reduction in cell viability after 48 hrs by Ez-cytoX based microplate reader method; format: functional; settings: BT-474, 48 h
Calf thymus DNA [9] = test: Binding affinity to calf thymus DNA assessed as DNA intercalation at 10 to 100 uM by fluorescence based EtBr-displacement assay; format: nucleic-acid assay; settings: Bos taurus; dose 10-100 µM
[10] = molecular target: T1, DNA topoisomerase 2-alpha; test: Inhibition of human topoisomerase 2 alpha mediated supercoiled pBR322 DNA relaxation at 10 uM by ethidium bromide staining based agarose gel electrophoresis relative to control
LNCaP-Clone-FGC = test: Antiproliferative activity against human LNCaP-Clone-FGC cells assessed as reduction in cell viability after 48 hrs by Ez-cytoX based microplate reader method; format: functional
[11] = molecular target: T1, DNA topoisomerase 2-alpha; test: Inhibition of human topoisomerase 2 alpha mediated supercoiled pBR322 DNA relaxation by ethidium bromide staining based agarose gel electrophoresis

T1 sequence (P11388 whole entry): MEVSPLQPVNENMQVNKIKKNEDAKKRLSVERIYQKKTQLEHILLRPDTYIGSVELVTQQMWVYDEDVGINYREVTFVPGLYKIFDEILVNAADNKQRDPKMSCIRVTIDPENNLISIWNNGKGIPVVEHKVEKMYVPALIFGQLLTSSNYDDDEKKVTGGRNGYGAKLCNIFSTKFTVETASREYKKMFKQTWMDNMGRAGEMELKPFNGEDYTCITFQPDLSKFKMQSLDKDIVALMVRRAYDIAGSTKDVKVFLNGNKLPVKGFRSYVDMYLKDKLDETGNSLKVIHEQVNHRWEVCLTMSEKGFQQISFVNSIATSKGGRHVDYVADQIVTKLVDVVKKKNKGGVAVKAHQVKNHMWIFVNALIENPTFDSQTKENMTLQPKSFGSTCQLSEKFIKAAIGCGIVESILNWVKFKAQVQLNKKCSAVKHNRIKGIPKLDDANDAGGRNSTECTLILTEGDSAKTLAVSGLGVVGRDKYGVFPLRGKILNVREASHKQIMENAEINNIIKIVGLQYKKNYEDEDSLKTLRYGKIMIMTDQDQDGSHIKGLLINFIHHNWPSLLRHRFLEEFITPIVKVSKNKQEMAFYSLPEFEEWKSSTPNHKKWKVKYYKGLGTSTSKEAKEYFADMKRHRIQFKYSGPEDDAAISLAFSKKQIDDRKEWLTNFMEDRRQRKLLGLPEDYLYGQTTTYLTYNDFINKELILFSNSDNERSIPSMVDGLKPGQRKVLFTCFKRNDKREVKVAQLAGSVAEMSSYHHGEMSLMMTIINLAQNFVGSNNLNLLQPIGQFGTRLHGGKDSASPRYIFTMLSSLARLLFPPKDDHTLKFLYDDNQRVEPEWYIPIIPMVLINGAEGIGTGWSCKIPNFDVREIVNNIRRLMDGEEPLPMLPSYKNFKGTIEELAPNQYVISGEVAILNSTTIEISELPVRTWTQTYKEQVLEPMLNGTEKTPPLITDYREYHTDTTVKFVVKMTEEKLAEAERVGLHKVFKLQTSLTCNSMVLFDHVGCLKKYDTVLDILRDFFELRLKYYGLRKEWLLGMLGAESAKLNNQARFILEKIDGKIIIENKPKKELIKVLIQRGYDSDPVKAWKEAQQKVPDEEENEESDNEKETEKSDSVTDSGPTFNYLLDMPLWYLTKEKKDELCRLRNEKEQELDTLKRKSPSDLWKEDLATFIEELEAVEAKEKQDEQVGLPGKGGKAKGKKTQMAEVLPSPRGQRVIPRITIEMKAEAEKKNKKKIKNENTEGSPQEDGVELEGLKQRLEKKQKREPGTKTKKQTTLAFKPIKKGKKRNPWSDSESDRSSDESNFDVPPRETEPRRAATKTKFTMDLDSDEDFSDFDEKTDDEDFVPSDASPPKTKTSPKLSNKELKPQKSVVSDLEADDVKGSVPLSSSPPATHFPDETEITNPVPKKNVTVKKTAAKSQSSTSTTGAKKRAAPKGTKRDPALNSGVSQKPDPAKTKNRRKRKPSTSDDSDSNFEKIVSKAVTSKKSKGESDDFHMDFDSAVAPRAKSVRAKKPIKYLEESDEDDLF
DNA topoisomerase 2-beta (Homo sapiens), sequence (Q02880 whole entry): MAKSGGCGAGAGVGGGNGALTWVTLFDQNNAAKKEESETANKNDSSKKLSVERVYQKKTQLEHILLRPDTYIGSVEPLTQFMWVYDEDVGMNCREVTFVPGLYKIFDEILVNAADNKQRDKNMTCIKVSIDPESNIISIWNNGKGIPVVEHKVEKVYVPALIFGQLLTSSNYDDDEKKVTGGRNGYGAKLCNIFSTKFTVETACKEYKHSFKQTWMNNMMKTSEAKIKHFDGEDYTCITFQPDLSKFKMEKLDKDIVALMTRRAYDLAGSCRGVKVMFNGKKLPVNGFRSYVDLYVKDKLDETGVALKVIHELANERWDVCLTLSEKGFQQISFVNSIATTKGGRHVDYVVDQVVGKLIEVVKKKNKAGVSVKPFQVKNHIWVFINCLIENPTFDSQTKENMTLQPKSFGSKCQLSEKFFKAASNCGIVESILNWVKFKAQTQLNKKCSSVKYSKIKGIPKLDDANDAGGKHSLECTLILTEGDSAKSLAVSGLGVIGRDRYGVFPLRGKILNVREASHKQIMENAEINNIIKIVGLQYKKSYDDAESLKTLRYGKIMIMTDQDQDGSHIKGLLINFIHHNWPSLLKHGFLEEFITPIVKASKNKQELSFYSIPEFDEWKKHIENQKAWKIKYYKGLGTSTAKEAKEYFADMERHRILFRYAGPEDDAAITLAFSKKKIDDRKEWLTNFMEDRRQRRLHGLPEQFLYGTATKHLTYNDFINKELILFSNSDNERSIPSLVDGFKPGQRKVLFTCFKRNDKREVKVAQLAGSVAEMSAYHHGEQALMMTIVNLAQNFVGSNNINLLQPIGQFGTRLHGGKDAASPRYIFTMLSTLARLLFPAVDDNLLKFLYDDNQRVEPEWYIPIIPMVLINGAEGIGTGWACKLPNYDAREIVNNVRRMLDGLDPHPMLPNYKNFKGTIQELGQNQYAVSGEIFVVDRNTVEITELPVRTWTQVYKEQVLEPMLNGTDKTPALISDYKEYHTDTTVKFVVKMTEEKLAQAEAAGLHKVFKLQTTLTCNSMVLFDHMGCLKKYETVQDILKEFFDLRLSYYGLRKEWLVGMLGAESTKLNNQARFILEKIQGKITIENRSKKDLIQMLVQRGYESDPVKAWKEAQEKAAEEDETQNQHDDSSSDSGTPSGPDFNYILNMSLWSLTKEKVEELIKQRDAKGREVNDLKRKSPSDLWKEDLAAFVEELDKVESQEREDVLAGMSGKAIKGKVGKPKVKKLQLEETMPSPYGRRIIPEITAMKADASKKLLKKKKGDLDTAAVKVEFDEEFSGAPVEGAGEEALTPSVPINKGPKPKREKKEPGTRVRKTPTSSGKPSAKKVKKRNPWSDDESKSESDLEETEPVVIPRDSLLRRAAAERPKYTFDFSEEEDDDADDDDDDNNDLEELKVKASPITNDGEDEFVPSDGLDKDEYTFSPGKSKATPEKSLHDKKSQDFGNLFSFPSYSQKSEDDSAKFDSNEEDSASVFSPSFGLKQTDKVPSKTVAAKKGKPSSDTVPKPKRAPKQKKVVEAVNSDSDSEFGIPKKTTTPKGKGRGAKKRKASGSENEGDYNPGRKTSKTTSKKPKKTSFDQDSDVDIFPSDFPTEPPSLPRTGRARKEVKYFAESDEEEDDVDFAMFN

Row | SMILES | IC50 (HeLa) [µM] | IC50 (HCT-15) [µM] | inhibition [1] [%] | also measured
1 | COc1cc([C@@H]2c3cc4c(cc3[C@@H](O[C@@H]3O[C@@H]5CO[C@@H](C)O[C@H]5[C@H](O)[C@H]3O)[C@H]3COC(=O)[C@H]23)OCO4)cc(OC)c1O [ETOPOSIDE] | 8.3 | – | – | –
2 | Nc1ccc2c(c1)CCc1c(-c3ccccc3F)cc(-c3ccc(O)cc3)nc1-2 | 3.26 | 1.52 | 25.3 | –
3 | Nc1ccc2c(c1)CCc1c(-c3cccc(OC(F)(F)F)c3)cc(-c3cccc(O)c3)nc1-2 | 4.62 | 1.84 | 60 | –
4 | Nc1ccc2c(c1)CCc1c(-c3ccc(OC(F)(F)F)cc3)cc(-c3ccc(O)cc3)nc1-2 | 5.86 | 2.02 | 36.5 | –
5 | Nc1ccc2c(c1)CCc1c(-c3ccc(F)cc3)cc(-c3ccc(O)cc3)nc1-2 | 5.64 | 2.96 | 77.6 | –
6 | Nc1ccc2c(c1)CCc1c(-c3ccc(OC(F)(F)F)cc3)cc(-c3ccccc3O)nc1-2 | > 50 | > 50 | 30.2 | –
7 | COc1cccc2c1C(=O)c1c(O)c3c(c(O)c1C2=O)C[C@@](O)(C(=O)CO)C[C@@H]3O[C@H]1C[C@H](N)[C@H](O)[C@H](C)O1 [DOXORUBICIN HYDROCHLORIDE] | – | 1.89 | – | –
8 | Nc1ccc2c(c1)CCc1c(-c3ccccc3OC(F)(F)F)cc(-c3ccc(O)cc3)nc1-2 | 2.87 | 2.96 | 72.5 | –
9 | Nc1ccc2c(c1)CCc1c(-c3ccccc3C(F)(F)F)cc(-c3ccccc3O)nc1-2 | 6.58 | 1.23 | 29.3 | –
10 | Nc1ccc2c(c1)CCc1c(-c3ccc(F)cc3)cc(-c3ccccc3O)nc1-2 | > 50 | > 50 | 1.2 | –
11 | Nc1ccc2c(c1)CCc1c(-c3ccccc3OC(F)(F)F)cc(-c3cccc(O)c3)nc1-2 | 3.41 | 5.58 | 62.8 | –
12 | Nc1ccc2c(c1)CCc1c(-c3ccc(C(F)(F)F)cc3)cc(-c3ccc(O)cc3)nc1-2 | 5.54 | 2.73 | 77.8 | –
13 | Nc1ccc2c(c1)CCc1c(-c3cccc(F)c3)cc(-c3ccccc3O)nc1-2 | 8.16 | 2.26 | 1.3 | –
14 | Nc1ccc2c(c1)CCc1c(-c3cccc(C(F)(F)F)c3)cc(-c3ccccc3O)nc1-2 | 7.61 | 2.29 | 25.7 | –
15 | Nc1ccc2c(c1)CCc1c(-c3ccccc3F)cc(-c3ccccc3O)nc1-2 | 22.8 | 1.11 | 1.2 | –
16 | Nc1ccc2c(c1)CCc1c(-c3cccc(C(F)(F)F)c3)cc(-c3ccc(O)cc3)nc1-2 | 5.14 | 2 | 75 | –

Row | SMILES | IC50 (HeLa) [µM] | IC50 (HCT-15) [µM] | inhibition [1] [%] | also measured
17 | Nc1ccc2c(c1)CCc1c(-c3ccccc3)cc(-c3ccc(O)cc3)nc1-2 | 6.55 | 3.82 | 21.7 | –
18 | Nc1ccc2c(c1)CCc1c(-c3ccccc3)cc(-c3cccc(O)c3)nc1-2 | 4.05 | 3.3 | 1.5 | –
19 | Nc1ccc2c(c1)CCc1c(-c3cccc(C(F)(F)F)c3)cc(-c3cccc(O)c3)nc1-2 | 4.49 | 2.43 | 62.9 | –
20 | Nc1ccc2c(c1)CCc1c(-c3cccc(OC(F)(F)F)c3)cc(-c3ccc(O)cc3)nc1-2 | 3.78 | 1.79 | 36.5 | –
21 | Nc1ccc2c(c1)CCc1c(-c3ccc(C(F)(F)F)cc3)cc(-c3ccccc3O)nc1-2 | > 50 | > 50 | 28.8 | –
22 | Nc1ccc2c(c1)CCc1c(-c3ccccc3OC(F)(F)F)cc(-c3ccccc3O)nc1-2 | 5.46 | 2.86 | 70 | –
23 | Nc1ccc2c(c1)CCc1c(-c3ccccc3)cc(-c3ccccc3O)nc1-2 | 33.2 | 3.47 | 0 | –
24 | Nc1ccc2c(c1)CCc1c(-c3ccc(C(F)(F)F)cc3)cc(-c3cccc(O)c3)nc1-2 | 4.98 | 2.34 | 72.4 | –
25 | Nc1ccc2c(c1)CCc1c(-c3ccccc3F)cc(-c3cccc(O)c3)nc1-2 | 5.38 | 1.92 | 4.3 | –
26 | Nc1ccc2c(c1)CCc1c(-c3ccccc3C(F)(F)F)cc(-c3ccc(O)cc3)nc1-2 | 5.07 | 1.99 | 81.9 | inhibition [2]: 21.7%; inhibition [3]: 19.6%; inhibition [4]: 34.4%; inhibition [5]: 82.6%; Activity (Calf thymus DNA [6]): inactive; IC50 (LNCaP): 5.58 µM; inhibition [7]: 22.3%; IC50 (DU-145): 1.56 µM; inhibition [8]: 57%; IC50 (SK-OV-3): 1.67 µM; IC50 (BT-474): 5.13 µM; Activity (Calf thymus DNA [9]): Dose-Dependent Effect; inhibition [10]: 66.2%; IC50 (LNCaP-Clone-FGC): 7.18 µM; IC50 [11]: 3.58 µM
27 | Nc1ccc2c(c1)CCc1c(-c3ccccc3C(F)(F)F)cc(-c3cccc(O)c3)nc1-2 | 5.4 | 2.93 | 87.4 | –
28 | Nc1ccc2c(c1)CCc1c(-c3ccc(OC(F)(F)F)cc3)cc(-c3cccc(O)c3)nc1-2 | 5.59 | 2.71 | 49 | –
29 | Nc1ccc2c(c1)CCc1c(-c3cccc(F)c3)cc(-c3cccc(O)c3)nc1-2 | 4.19 | 3.91 | 3.4 | –
30 | Nc1ccc2c(c1)CCc1c(-c3cccc(F)c3)cc(-c3ccc(O)cc3)nc1-2 | 5.05 | 1.85 | 10.5 | –
31 | Nc1ccc2c(c1)CCc1c(-c3ccc(F)cc3)cc(-c3cccc(O)c3)nc1-2 | 5.18 | 2.87 | 3.9 | –
